Here are results for 41 molecules from ChEMBL document CHEMBL3507680, “University of Dundee, Gates Library screen for HepG2 cell viability”.

This data set is described as follows: Human HepG2 cell viability assay in 384 well format. Format: toxicity, cell-based. Further details: dose 125 nL, time 70.5 hour; concentration not given beside the values. The settings on record: HepG2 cells, read-out: Inhibition.
Take `CC/N=c1\nc(NCC)nc2n1C(O)(Nc1ccc(C)cc1C)CS2` (stereo unspecified): the cytotoxicity at 70.5 h is 4.88%.

As to `CCOc1cccc2c1OCC(=O)N(c1ccc3c(c1)OCO3)C2`, the cytotoxicity at 70.5 h is 14.7%. Turning to `CCOc1cccc2c1OCC(=O)N(c1ccc3c(c1)OCCO3)C2`, the cytotoxicity at 70.5 h was -6.5%. The same measure for `O=c1[nH]nc2c(S(=O)(=O)N3CCOCC3)cccn12`: -9.51%. The same measure for `Cn1ccc2c(cnc3nc(-c4ccncc4)nn32)c1=O`: -7.69%; for `Cc1nc2ncc3c(=O)n(C)ccc3n2n1`: -8.63%. Take `CCc1nnc2sc(-c3cc(C(C)C)n[nH]3)nn12`: the cytotoxicity at 70.5 h was -1.02%. The same measure for `CC1CCC2(CC1)Nc1ccccc1CO2` (stereo unspecified): 15.1%; for `COC(=O)C1CCN(C(=O)c2cc(Br)ccc2-n2cnnn2)CC1`: -1.5%; for `CN1CCCN(Cn2nc(-c3ccccc3F)ccc2=O)CC1`: -5.91%. The value for `Cc1ccccc1CS(=O)(=O)c1nnc(C(C)NC(=O)OC(C)(C)C)o1` (stereo unspecified) was 26.9%; that for `CC(NC(=O)OC(C)(C)C)c1nnc(S(=O)(=O)Cc2ccccc2Cl)o1` (stereo unspecified) was -4.85%; that for `CC(=O)c1ccc(NC(=O)N[C@H](C(=O)O)C(C)C)cc1` was -6.92%. For the molecule `CCOC(=O)C1CCN(C(=O)c2cc(Br)ccc2-n2cnnn2)CC1`, the cytotoxicity at 70.5 h is -6.49%.

`O=C(Cc1ccc2c(c1)OCC2)Nc1nc[nH]n1`: the cytotoxicity at 70.5 h was -8.03%. The same measure for `O=C(Cc1ccc2c(c1)OCC2)Nc1nn[nH]n1`: -8.8%; for `CC(NC(=O)OC(C)(C)C)c1nnc(S(=O)(=O)Cc2ccc(Cl)cc2)o1` (stereo unspecified): 4.02%. Take `CC(CC(=O)O)CC(=O)Nc1sc2c(c1C(N)=O)CCc1ccccc1-2` (stereo unspecified): the cytotoxicity at 70.5 h amounted to 19.3%. The value for `NC(=O)c1c(NC(=O)C2CCCO2)sc2c1CCc1ccccc1-2` (stereo unspecified) was -3.81%. The same measure for `Cc1cccc(CSc2ncc(Br)c(C(=O)O)n2)c1`: -8.53%; for `Cc1ccc(CSc2ncc(Br)c(C(=O)O)n2)cc1`: 0.214%. In the case of `CCOc1cc(CNCCCn2ccnc2)cc(Cl)c1OC`, the cytotoxicity at 70.5 h stood at 3.61%.

Consider `CCOc1c(Cl)cc(Cl)cc1CNCCCn1ccnc1`, for which the cytotoxicity at 70.5 h was -10.4%. For the molecule `Cc1nc(Nc2ccc(Cl)cn2)sc1C(=O)NC(C)C`, the cytotoxicity at 70.5 h is 7.41%.

Turning to `Cc1c(C(=O)O)nnn1Cc1cccc(C(F)(F)F)c1`, the cytotoxicity at 70.5 h is -12.7%. With `O=C(COCc1nc(-c2ccncc2)no1)N1CCOCC1`, the cytotoxicity at 70.5 h is -0.64%. On to `CCN1CCN(C(=O)COCc2nc(-c3ccncc3)no2)CC1`, for which the cytotoxicity at 70.5 h is -1.19%.

For the molecule `Cc1cc(O)n(-c2ccc3nnc(C)n3n2)n1`, the cytotoxicity at 70.5 h is -19.5%. `O=C(O)c1cnc(N2CCCC2)nc1COc1ccccc1`: the cytotoxicity at 70.5 h is -2.71%. Regarding `Cc1nc(N2CCCC2)ncc1-c1cc(O)n2ncnc2n1`, the cytotoxicity at 70.5 h is -2.97%.

Consider `COCCNc1cc(C(=O)N2CCOCC2)nc(C)n1`, for which the cytotoxicity at 70.5 h came to 0.483%. The same measure for `CCn1nc(C)c2nnn(CC(=O)Nc3cccc(C)c3)c(=O)c21`: -10.1%; for `Cc1nc(NCCc2ccccc2)cc(C(=O)N2CCCCC2)n1`: -0.559%; for `COc1ccc(OCCc2nnc(NC(C)=O)s2)cc1`: -4.39%. For `Cc1nc(NCc2ccc(F)cc2)cc(C(=O)N2CCOCC2)n1`, the cytotoxicity at 70.5 h is -3.46%.

For the molecule `Cc1c(Cc2ccccc2)c(O)nc2nc(N3CCOCC3)nn12`, the cytotoxicity at 70.5 h is -8.68%.

As to `Cc1cccc(NC(=O)CN2C(=O)CC(C)(C)c3ccccc32)n1`, the cytotoxicity at 70.5 h is -8.87%. The same measure for `CC1(C)CC(=O)N(CC(=O)Nc2ccon2)c2ccccc21`: -6.95%. Consider `O=C(Nc1cc(-c2ccncc2)no1)C1CCCCC1`, for which the cytotoxicity at 70.5 h was -6.08%.

Consider `CCn1nc(C)c(NC(=O)c2nnn(Cc3ccccc3)c2OC)c1C`, for which the cytotoxicity at 70.5 h is -5.09%. The same measure for `CCOC(=O)CSc1nnc(C(N)CC(C)C)o1` (stereo unspecified): -7.86%.
